*1 amine or outer side, *2 acyl side, *3 side chain or, on linkers, in order; H or OH if unused. Where a SMILES comes first, the peptide text is derived from it. The star is where a group is joined. X1 = Clc1ccc(-c2cccc(N*)c2)cc1Cl; Suc = O=C(CCC(=O)[*:2])[*:1]; X2 = C(CC1CC1)N*

As usually defined, the Kd is the free concentration of one partner at which half of the binding sites on the other are occupied at equilibrium, for simple one-to-one binding.

The target of this experiment is T1, Neutrophil cytosol factor 1 (Homo sapiens, UniProt P14598).
T1 sequence (P14598 whole entry): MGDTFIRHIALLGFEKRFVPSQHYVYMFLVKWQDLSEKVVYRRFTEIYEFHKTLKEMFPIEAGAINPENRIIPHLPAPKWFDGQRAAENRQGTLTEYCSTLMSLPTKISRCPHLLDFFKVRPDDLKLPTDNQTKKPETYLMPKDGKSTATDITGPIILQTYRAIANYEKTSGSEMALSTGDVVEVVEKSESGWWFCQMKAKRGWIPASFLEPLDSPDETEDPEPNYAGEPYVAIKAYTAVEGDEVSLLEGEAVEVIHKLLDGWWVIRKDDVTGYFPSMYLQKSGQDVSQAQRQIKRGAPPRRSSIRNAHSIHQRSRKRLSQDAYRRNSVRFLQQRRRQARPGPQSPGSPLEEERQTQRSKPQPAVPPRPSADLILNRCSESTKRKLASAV
Nature of the experiment: Binding affinity to human N-terminal TEV cleavable 6His tagged p47phox (151-285 residues) assessed as dissociation […] constant by Surface plasmon resonance assay. On the technique in general: In SPR one partner is held on a chip, and binding of the other changes the refractive index at the surface.
In the case of `N=C(N)NCCC[C@H](NC(=O)[C@@H]1CCC[C@H]1[C@@H](O)[C@@H]1CCCN1C(=O)[C@@H]1CCCN1C(=O)CCC(=O)Nc1cccc(-c2ccc(Cl)c(Cl)c2)c1)C(=O)NCCC1CC1`, the Kd worked out at 312 nM.

For `N=C(N)NCC1CCN(C(=O)[C@@H]2CCCN2C(=O)[C@@H]2CCCN2C(=O)[C@@H]2CCCN2C(=O)CCC(=O)Nc2cccc(-c3cnco3)c2)CC1`, the Kd came to 5710 nM.

Regarding `N=C(N)NCCC[C@H](NC(=O)[C@@H]1CCCN1C(=O)[C@@H]1CCC[C@H]1[C@@H](O)[C@@H]1CCCN1C(=O)CCC(=O)Nc1cccc(-c2ccc(Cl)c(Cl)c2)c1)C(=O)NCCC1CC1`, the Kd was greater than 30000 nM.

`C[C@H](NC(=O)[C@@H]1CCCN1C(=O)[C@@H]1CCCN1C(=O)[C@H](CCCNC(=N)N)NC(=O)[C@@H]1CCCN1C(=O)[C@@H]1CCCN1C(=O)[C@@H]1CCCN1C(=O)[C@H](CC(N)=O)NC(=O)[C@H](CO)NC(=O)[C@@H]1CCCN1C(=O)[C@@H]1CCCN1)C(=O)O` (H-PPSNPPPRPPA-OH): the Kd was found to be 214 nM.

For `N=C(N)NCCC[C@H](NC(=O)[C@@H]1CCCN1C(=O)[C@@H]1CCCN1C(=O)[C@@H]1CCCN1C(=O)CCC(=O)Nc1cccc(-c2ccc(Cl)c(Cl)c2)c1)C(=O)NCCC1CC1` ({X1-Suc}-PPPR-X2), the Kd worked out at 43 nM.
